Laboratory results: patent publication US9872849B2, “Diterpenoid membranolide compounds having anti-leishmania activity and uses thereof” (UNIVERSITY OF SOUTH FLORIDA, priority 2014, dated 2018)
Read-outs that look alike come from different tables or passages of the source.

Experiments:
[1] = tested on: L. donovani axenic amastigotes; assay: microbe, parasite or virus in culture; type: cell-based, Leishmania donovani
Method: (§1) Leishmaniasis efficacy was tested against L. donovani axenic amastigotes (amphotericin B, positive control=0.38 μM). Cytotoxicity was verified against Vero cells.

Vero cells = assay: Cytotoxicity against Vero cells; type: cell-based; conditions: for IC50: cytotoxicity, read-out: IC50 Values Vero Cell
Method: as §1

[2] = axenic amastigotes, read-out: IC50 Values Leishmania donovani

Compound: C[C@@H]1[C@H](O)[C@@H](C)/C=C/C=C/C=C/C=C/C=C/C=C/C=C/[C@H](O[C@@H]2O[C@H](C)[C@@H](O)[C@H](N)[C@@H]2O)C[C@@H]2O[C@](O)(C[C@@H](O)C[C@@H](O)[C@H](O)CC[C@@H](O)C[C@@H](O)CC(=O)O[C@H]1C)C[C@H](O)[C@H]2C(=O)O [amphotericin B, reference compound]
- IC50 [1, 2]: 0.38 µM

Compound: aplysulphurin
- IC50 (Vero cells): 47.7 µM
- selectivity index (cytotoxicity/activity) [1]: high selectivity index
- IC50 [1, 2]: 1.56 µM

Compound: CO[C@@H]1O[C@@H](OC)c2c1ccc([C@@]1(C)CCCC(C)(C)C1)c2[C@@H](C)C(=O)O [Membranolide C, membranolide C]
- IC50 (Vero cells): 40.7 µM
- IC50 [1, 2]: > 53.1 µM

Compound: membranolide A
- IC50 (Vero cells): > 58.1 µM
- IC50 Values Leishmania donovani ([1]; axenic amastigotes): Inactive

Compound: membranolide H
- cytotoxicity (in words) (Vero cells): lacking significant cytotoxicity
- IC50 (Vero cells): > 53.1 µM
- activity against L. donovani (in words) [1]: potent activity
- IC50 [1, 2]: 1.14 µM

Compound: CC(=O)O[C@@H]1OC2OC(=O)[C@H](C)C3=C([C@@]4(C)CCCC(C)(C)C4)CCC1C32 (stereo partly drawn) [Tetrahydroaplysulphurin, tetrahydroaplysulphurin]
- IC50 (Vero cells): 53.3 µM
- IC50 [1, 2]: 17.3 µM

Compound: membranolide G
- cytotoxicity (in words) (Vero cells): lacking significant cytotoxicity
- IC50 (Vero cells): > 53.1 µM
- activity against L. donovani (in words) [1]: potent activity
- IC50 [1, 2]: 0.82 µM

Compound: CO[C@@H]1O[C@@H](OC)c2c1ccc([C@@]1(C)CCCC(C)(C)C1)c2[C@@H](C)C(=O)O [Membranolide D, membranolide D]
- IC50 (Vero cells; Chlorocebus sabaeus): 40.7 µM
- IC50 ([1]; Leishmania donovani, axenic amastigotes): > 53.1 µM

Compound: membranolide F
- IC50 (Vero cells): 42.4 µM
- IC50 [1, 2]: 26.7 µM

Compound: CO[C@H]1OC(=O)[C@H](C)c2c([C@@]3(C)CCCC(C)(C)C3)ccc(C=O)c21 [Membranolide B, membranolide B]
- IC50 (Vero cells): 44.3 µM
- IC50 [1, 2]: 58.1 µM
